Measurements reported in PubChem BioAssay AID332 (DTP/NCI, 2004).
Where “and” joins values, the source holds several entries; their conditions need not be identical. Equal entries are not always repeated. Results filed as inconclusive are left out. Numbered stars: 1 amine (or outer) side, 2 acyl side, 3 side chain; on linkers, the order of the positions; unused ones are H or OH. Bridge positions count the residues as written; N and C are the ends. Square brackets hold non-standard residues; d marks the D form. Peptide text beside a SMILES is read from it. I, II: the chains in the order shown. Actinocin(9to1) = Cc1c2oc3c(C)ccc(C(=O)[*:1])c3nc-2c(C(=O)[*:2])c(N)c1=O; aThr = C[C@H](O)[C@H](N)C(=O)O; NMeV = CN[C@H](C(=O)O)C(C)C; Sar = CNCC(=O)O

System: mice, ADJ-PC-20 plasma cell tumor sc, T/C %
Assay: NCI In Vivo Anticancer Drug Screen. Data for tumor model ADJ-PC-20 Plasma Cell (subcutaneous) in unknown mice
Conditions: endpoint: mean tumor weight, higher = larger tumour
Protocol: The antitumor activity of compounds was measured in mice bearing transplantable tumors. Survival or tumor size were measured and the results are expressed as the measurement made in the treated group (T) divided by the measurement made in the vehicle treated control group (C). The tumor model used in this assay is ADJ-PC-20 Plasma Cell (subcutaneous) in unknown mice

[1] = dose: 1.25 mg/kg/injection, schedule: Q01DX010 (ip), vehicle: saline
[2] = dose: 63.0 micrograms/kg/injection, schedule: Q01DX010 (ip), vehicle: saline
[3] = dose: 125.0 mg/kg/injection, schedule: Q01DX010 (ip), vehicle: carboxymethylcellulose (CMC)
[4] = dose: 250.0 mg/kg/injection, schedule: Q01DX010 (ip), vehicle: carboxymethylcellulose (CMC)
[5] = dose: 8.0 micrograms/kg/injection, schedule: Q01DX010 (ip), vehicle: saline
[6] = dose: 31.0 micrograms/kg/injection, schedule: Q01DX010 (ip), vehicle: saline
[7] = dose: 6.25 mg/kg/injection, schedule: Q01DX010 (ip), vehicle: saline

For `NC(=O)c1ccc(N)nc1`, which T/C (dose: 0.63 mg/kg/injection, schedule: Q01DX010 (ip), vehicle: saline) is on record?
The T/C was 69 % of control.

What about the T/C [1] of the same compound?
Its T/C is 52 % of control.

And the T/C (dose: 1.25 mg/kg/injection, schedule: Q01DX010 (ip), vehicle: water)?
Its T/C is 35 % of control.

What about the T/C (dose: 2.5 mg/kg/injection, schedule: Q01DX010 (ip), vehicle: water) of the same compound?
Its T/C is 18 % of control.

With `Cc1c2oc3c(C)ccc(C(=O)N[C@@H]4C(=O)N[C@H](C(C)C)C(=O)N5CCC[C@H]5C(=O)N(C)CC(=O)N(C)[C@@H](C(C)C)C(=O)O[C@H]4C)c3nc-2c(C(=O)N[C@@H]2C(=O)N[C@H](C(C)C)C(=O)N3CCC[C@H]3C(=O)N(C)CC(=O)N(C)[C@@H](C(C)C)C(=O)O[C@H]2C)c(N)c1=O` (I: [aThr][dV]P[Sar][NMeV] / II: [aThr][dV]P[Sar][NMeV]; ester I:1-I:C, II:1-II:C; linker I:N-II:N via Actinocin(9to1)) as the compound, how does the T/C (dose: 4.7 micrograms/kg/injection, schedule: Q01DX010 (ip), vehicle: saline) read?
The T/C was 161 % of control.

What about the T/C (dose: 6.2 micrograms/kg/injection, schedule: Q01DX010 (ip), vehicle: saline) of the same compound?
The T/C was 193 % of control.

And the T/C (dose: 9.4 micrograms/kg/injection, schedule: Q01DX010 (ip), vehicle: saline)?
Its T/C is 87 % of control.

What about the T/C (dose: 12.5 micrograms/kg/injection, schedule: Q01DX010 (ip), vehicle: saline) of the same compound?
The T/C was 93 % of control.

How did the T/C [2] turn out when `C[C@]12CC[C@H](OC3OC(CO)C(O)C(O)C3O)C[C@H]1CC[C@@H]1[C@@H]2CC[C@]2(C)[C@@H](C3=CCOC3=O)CC[C@]12O` (stereo not given in full) was run?
The T/C was 99 % of control.

And the T/C (dose: 125.0 micrograms/kg/injection, schedule: Q01DX010 (ip), vehicle: saline)?
Its T/C is 93 % of control.

What about the T/C (dose: 250.0 micrograms/kg/injection, schedule: Q01DX010 (ip), vehicle: saline) of the same compound?
The T/C was 95 % of control.

`O=c1cn[nH]c(=O)[nH]1` was tested. Which T/C [3] did it give?
The T/C was 75 % of control.

What about the T/C [4] of the same compound?
The T/C was 64 % of control.

And the T/C (dose: 500.0 mg/kg/injection, schedule: Q01DX010 (ip), vehicle: carboxymethylcellulose (CMC))?
The T/C was 66 % of control.

And the T/C (dose: 1000.0 mg/kg/injection, schedule: Q01DX010 (ip), vehicle: carboxymethylcellulose (CMC))?
The T/C was 38 % of control.

With `C1CN1c1nc(N2CC2)nc(N2CC2)n1` as the compound, how does the T/C (dose: 0.01 mg/kg/injection, schedule: Q01DX010 (ip), vehicle: saline) read?
Its T/C is 38 % of control.

And the T/C (dose: 1.9 micrograms/kg/injection, schedule: Q01DX010 (ip), vehicle: saline)?
Its T/C is 170 % of control.

And the T/C (dose: 7.8 micrograms/kg/injection, schedule: Q01DX010 (ip), vehicle: saline)?
The T/C was 100 % of control.

What about the T/C [5] of the same compound?
Its T/C is 101 % of control.

And the T/C (dose: 15.0 micrograms/kg/injection, schedule: Q01DX010 (ip), vehicle: saline)?
Its T/C is 99 % of control.

What about the T/C [6] of the same compound?
Its T/C is 105 % of control.

What about the T/C (dose: 31.2 micrograms/kg/injection, schedule: Q01DX010 (ip), vehicle: saline) of the same compound?
The T/C was 37 % of control.

What about the T/C [2] of the same compound?
The T/C was 66 % of control.

`N=[N+]=CC(=O)OCC(N)C(=O)O` (stereo not given) was tested. Which T/C [1] did it give?
The T/C was 120 % of control.

What about the T/C (dose: 5.0 mg/kg/injection, schedule: Q01DX010 (ip), vehicle: saline) of the same compound?
Its T/C is 93 % of control.

With `CCOC(=O)NP(=O)(N1CC1(C)C)N1CC1(C)C` (stereo not given) as the compound, how does the T/C [3] read?
The T/C was 68 % of control.

What about the T/C [4] of the same compound?
The T/C was 20 % of control.

How did the T/C (dose: 3.2 mg/kg/injection, schedule: Q01DX010 (ip), vehicle: saline) turn out when `O=P1(N(CCCl)CCCl)NCCCO1` (stereo not given) was run?
Its T/C is 21 % of control.

And the T/C [7]?
The T/C was 7 % of control.

Which results are given for `COc1cc2c(c(OC)c1OC)-c1ccc(OC)c(=O)cc1[C@@H](NC(C)=O)CC2`?
T/C [5]: 99 % of control; T/C (dose: 16.0 micrograms/kg/injection, schedule: Q01DX010 (ip), vehicle: saline): 114 % of control; T/C [6]: 105 % of control

For `Clc1ccc(C(c2ccccc2Cl)C(Cl)Cl)cc1` (stereo not given), which T/C (dose: 25.0 mg/kg/injection, schedule: Q01DX010 (sc), vehicle: steriod suspending solution) is on record?
The T/C was 66 % of control.

And the T/C (dose: 50.0 mg/kg/injection, schedule: Q01DX010 (sc), vehicle: steriod suspending solution)?
The T/C was 60 % of control.

And the T/C (dose: 200.0 mg/kg/injection, schedule: Q01DX010 (sc), vehicle: steriod suspending solution)?
The T/C was 86 % of control and 100 % of control and 109 % of control.

And the T/C (dose: 400.0 mg/kg/injection, schedule: Q01DX010 (sc), vehicle: steriod suspending solution)?
Its T/C is 92 % of control.

What about the T/C (dose: 800.0 mg/kg/injection, schedule: Q01DX010 (sc), vehicle: steriod suspending solution) of the same compound?
The T/C was 73 % of control.

How did the T/C (dose: 1.56 mg/kg/injection, schedule: Q01DX010 (ip), vehicle: saline) turn out when `O=c1[nH]cc(F)c(=O)[nH]1` was run?
The T/C was 173 % of control.

What about the T/C [7] of the same compound?
The T/C was 35 % of control.

What about the T/C (dose: 12.5 mg/kg/injection, schedule: Q01DX010 (ip), vehicle: saline) of the same compound?
Its T/C is 20 % of control.
